Test results published in ChEMBL document CHEMBL5316372, “NMR Fingerprints of Formyl Phloroglucinol Meroterpenoids and Their Application to the Investigation of Eucalyptus gittinsii subsp. gittinsii” (J Nat Prod, 2023).
≈ marks a conversion by molar mass, not a printed value.

How the values were obtained:
[1] = system: Plasmodium falciparum; test: Antiplasmodial activity against Plasmodium falciparum 3D7 incubated for 72 hrs by DAPI staining based analysis; format: functional, organism-based; settings: 3D7, 72 h
[2] = Cytotoxicity against HEK293 cells assessed as inhibition of cell growth at 40 uM incubated for 72 hrs by resazurin based fluorescence plate reader analysis relative to control; format: toxicity; settings: human
[3] = system: HEK293; test: Cytotoxicity against HEK293 cells assessed as reduction in cell viability at 2.5 uM incubated for 72 hrs by resazurin based fluorescence plate reader analysis; format: toxicity; settings: human, hek293, 72 h
[4] = system: Staphylococcus aureus; test: Antibacterial activity against Methicillin-sensitive Staphylococcus aureus ATCC 25923 incubated for 18 hrs by Luria-Bertani broth based plate reader analysis; format: functional
[5] = system: Staphylococcus aureus; test: Antibacterial activity against Methicillin-resistant Staphylococcus aureus ATCC 43300 incubated for 18 hrs by Luria-Bertani broth based plate reader analysis; format: functional
[6] = Cytotoxicity against HEK293 cells assessed as inhibition of cell growth at 5 uM incubated for 72 hrs by resazurin based fluorescence plate reader analysis relative to control; format: toxicity; settings: human
[7] = system: HEK293; test: Cytotoxicity against HEK293 cells assessed as reduction in cell viability at 40 uM incubated for 72 hrs by resazurin based fluorescence plate reader analysis; format: toxicity; settings: human, hek293, 72 h

Compound | IC50 [1] [µM] | inhibition at 72 h, 40 µM [2] [%] | Activity [3] | MIC50 [4] [µM] | MIC50 [5] [µM] | inhibition at 72 h, 5 µM [6] [%] | Activity [7]
CCc1nc(N)nc(N)c1-c1ccc(Cl)cc1 [PYRIMETHAMINE] | 0.02 | 33.4 |  |  |  |  | 
C[C@H]1[C@H](OC(=O)CCC(=O)O)O[C@@H]2O[C@@]3(C)CC[C@H]4[C@H](C)CC[C@@H]1[C@@]24OO3 [ARTESUNATE] | 0.003 |  | Non-Toxic |  |  |  | 
CC(=O)O[C@H]1C[C@@]2(C)[C@@H](C[C@@H](O)[C@H]3[C@@]4(C)CC[C@@H](O)[C@@H](C)[C@@H]4CC[C@@]32C)/C1=C(\CCC=C(C)C)C(=O)O [FUSIDIC ACID] |  |  |  | < 0.12 | < 0.12 |  | 
COc1ccc(C[C@H](N)C(=O)N[C@H]2[C@@H](O)[C@H](n3cnc4c(N(C)C)ncnc43)O[C@@H]2CO)cc1 [PUROMYCIN] | 0.08 |  |  |  |  | 0.89 | 
C/C1=C\[C@H]2[C@@H](CC[C@]3(C)Oc4c(C=O)c(O)c(C(=O)CC(C)C)c(O)c4C[C@H]3CC1)C2(C)C | 23.6 |  |  | > 75 | > 75 |  | Non-Toxic
C/C1=C\[C@@H]2[C@H](CC[C@@]3(C)Oc4c(c(O)c(C=O)c(O)c4C(=O)CC(C)C)C[C@@H]3CC1)C2(C)C | 15.7 |  |  | 75 (≈ 34.1 µg/mL) | 75 (≈ 34.1 µg/mL) |  | Non-Toxic
C=C(C)[C@@H]1C=C2[C@@H](C)CC[C@@H](Cc3c(O)c(C=O)c(O)c(C(=O)CC(C)C)c3O)[C@]2(C)CC1 | 1.3 | > 85 |  | 4.7 (≈ 2.14 µg/mL) | 4.7 (≈ 2.14 µg/mL) |  | 
